The text below walks through data of patent US9096833B2, “Methods of treating pre-malignant ductal cancer with autophagy inhibitors” (GEORGE MASON UNIVERSITY, priority 2009, dated 2015).

Experiment [1] has as its system DCIS malignant precursor cells. As to the method: Tissue collection. […] Gross tissue pathology at the time of procurement was assessed by a board certified pathologist. Tissue containing DCIS lesions was excised for further macrodissection and rinsed in sterile phosphate buffered saline to remove sentinel lymph node dye. Using sterile technique, ductal tissue was dissected from surrounding breast adipose/fibrous tissue. The ductal tissue was rinsed in serum free DMEM/F12 medium (Invitrogen, Carlsbad, Calif., USA) supplemented with human recombinant EGF (10 ng/mL; Cell Signaling Technology, Danvers, Mass., USA or Millipore, Billerica, Mass., USA), insulin (10 μg/mL; Roche, Indianapolis, Ind., USA), streptomycin sulfate (100 μg/mL; Sigma, St. Louis, Mo., USA) and gentamicin sulfate (20 μg/mL; Sigma) prior to distribution in culture flasks (MidSci, St. Louis, Mo., USA). Ductal tissue was allowed to attach to the culture surface and observed daily for cellular outgrowths. Non-adherent organoids were removed from the culture flask.
Organoid ex vivo culture. Dissected breast ductal tissue was grown in 115 cm^2 TPP reclosable flasks (MidSci) or 10 cm^2 culture tubes (MidSci) in serum free DMEM/F12 medium supplemented with human recombinant EGF (10 ng/mL), insulin (10 μg/mL), streptomycin sulfate (100 μg/mL) and gentamicin sulfate (20 μg/mL), with or without 0.36% (v/v) murine Engelbreth-Holm-Swarm (EHS) derived, growth factor reduced, basement membrane extract (Trevigen, Gaithersburg, Md., USA) at 37° C. in a humidified 5.0% CO2 atmosphere. Medium was replaced three times per week. Cultures were maintained continuously for up to one year. Periodically, organoids were removed, under microscopic visualization, for propagation into new culture flasks or phenotypic and molecular analysis.
(§1) Pharmacological inhibition of autophagy. […] CO-containing medium was replaced three times per week for a period of 6 months.
(§2) Statistics. The Student T-test, two tailed with Welch's correction, was used to calculate the p-value, and to determine the statistical difference of epithelial outgrowth area before and after CQ treatment. P values <0.05 were considered significant. Standard deviation (SO) or standard error of the mean (SEM) was calculated for group comparisons. Wilcoxon rank sum was used to determine the differences between CQ treated and untreated groups for the reverse phase protein arrays. A p=0.1 was considered different for small sample sizes.

Experiment [2] deals with autophagy associated pathways. The experiment can be described thus: Cell signaling pathway mapping by reverse phase protein microarray (RPMA) of DCIS spheroids pre and post chloroquine. As to conditions: for autophagy associated signal pathway proteins/endpoints (Atg5, AKT, ERK, mTOR, IRS-1, p38 etc.) by RPMA: chloroquine phosphate 50 μM for 4 days, spheroids pre vs post treatment, n=3. The class given is cell-based, human. As to the method: as §1, §2

The subject of experiment [3] is DCIS organoid culture spheroids. Briefly: Autophagosome lysosome imaging with LysoTracker Red in DCIS organoid culture. The class given is cell-based, human. As to conditions: chloroquine phosphate (50 μM) for 2 weeks.
In experiment [4] the test system is DCIS organoid cell cultures. The experiment can be described thus: H&E histomorphology of chloroquine treated DCIS organoid cell cultures. As to conditions: chloroquine phosphate (50 μM). The class given is cell-based, human. As to the method:
as §1
Immunohistochemistry. Formalin fixed murine tissue or DCIS organoids were processed and paraffin embedded by commercial laboratories (AML Laboratories, Inc, Rosedale, Md. or Bi-Biomics, Nampa, Id.). Formalin fixed paraffin embedded (FFPE) tissue sections (5 μm or 1 μm thickness) mounted on positively charged glass slides were baked at 56° C. for 20 min., deparaffinized in xylene and rehydrated in a series of graded alcohols (100%, 95%, and 70%) with a final rinse in wash buffer (Dako, Carpinteria, Calif., USA). Antigen retrieval, when necessary, was performed with proteinase K or heat induced epitope retrieval. Immunostaining was performed on a Dako Autostainer with an Envision+HRP staining kit (Dako) per manufacturer's instructions. Stained tissue sections were counterstained with Hematoxylin (Dako), rinsed in distilled water and developed in Scott's Tap Water Substitute solution. Cover slips were applied using aqueous mounting medium (Paramount; Dako). Images were captured with an Olympus BX51 microscope using 4×, 10×, 20×, or 100× objectives.

The structures appear in SMILES notation.

Regarding `CCN(CC)CCCC(C)Nc1ccnc2cc(Cl)ccc12` (stereo not drawn) [chloroquine, N′-(7-chloroquinolin-4-yl)-N,N-diethyl-pentane-1,4-diamine], in experiment [1] (case 09-148, chloroquine phosphate 50 μM), the “explants that did not have any spheroids following chloroquine treatment” value is 12 out of 14. In addition, in experiment [1] (case 09-301, n=3, 20.5±7.8 prior to treatment), the spheroids after treatment result is listed as “no spheroids observed”. In experiment [1] (chloroquine phosphate), the “ex vivo invasion of autologous stroma” value was “suppressed ex vivo invasion of autologous stroma”. Further, in experiment [1] (cultured DCIS cells, in combination with anti-estrogen compound (tamoxifen)), the “inhibition of spheroid outgrowth, CQ in combination with tamoxifen” value is reported as “pronounced effect”. Also, the “number of spheroids generated post chloroquine treatment, majority of explants” value in experiment [1] (two different patient DCIS cases, up to 113 spheroids per duct organoid untreated) is on record as “zero”. In addition, the “apoptosis (elevation of cleaved PARP Asp214)” value in experiment [2] (as early as 48 hours post treatment) is “induced apoptosis”. In addition, the figures for the “autophagy associated signal pathway proteins/endpoints (Atg5, AKT, ERK, mTOR, IRS-1, p38 etc.) by RPMA” value in experiment [2] (listed as CQ), in experiment [2] (listed as Chloroquine) and in experiment [2] (listed as chloroquine phosphate) were “suppressed”, “markedly inhibited” and “suppressed autophagy associated proteins”, respectively. Further, the “spheroid integrity and LysoTracker Red distribution” value in experiment [3] was “Dissociation of the spheroid, and diffuse accumulation of LysoTracker Red”. In experiment [4] (6 months), the “histology of organoid cultured in the presence of chloroquine for 6 months” value is “complete absence of cellular outgrowths and degenerated cells within the duct”. Also, the “histology of organoid 2 days post chloroquine treatment” value in experiment [4] (2 days) is listed as “Degeneration of the invading DCIS cells within the organoid”.
